The values below come from PubChem BioAssay AID1996.

≈ marks a conversion by molar mass, not a printed value.

For this data set the following is noted: buffer; pH 7.4; 200.0 µM.
`CCOc1ccc(-c2csc3nc[nH]c(=O)c23)cc1` yielded a solubility (kinetic) of 18.9 µg/mL (≈ 69.4 µM).

For `CN(CCOc1ccc(F)cc1)Cc1ccccc1.O=C(O)C(=O)O`, the solubility (kinetic) amounted to 34.6 µg/mL. Against the preceding molecule, the solubility kinetic is about 1.8-fold higher.

`CNC(=S)Nc1cccc([N+](=O)[O-])c1` registered a kinetic solubility above 31.7 µg/mL.

Consider `N#Cc1ccc(Oc2ccc(NC(=O)C3CC=CCC3C(=O)O)cc2)cc1` (configuration not stated), for which the solubility (kinetic) was above 54.4 µg/mL.

In turn, `COc1nccc(C(F)(F)F)c1C(=O)Nc1ccc(Cl)cc1` gave a solubility (kinetic) of 1.6 µg/mL (≈ 4.84 µM).

For `CCc1nnc(SCC(=O)NC2CC2)n1CC`, the kinetic solubility was above 38.2 µg/mL.

As for `CC(=O)N(Cc1ccccc1)Cc1nc2sc(C)c(C)c2c(=O)[nH]1`, the kinetic solubility was 47.5 µg/mL (≈ 139 µM).

In the case of `O=C1Cc2cc(NS(=O)(=O)c3ccc(Cl)cc3)cc3c2N1CCC3`, the kinetic solubility is 42.9 µg/mL (≈ 118 µM).

`Cc1ccc(NC(=O)CCc2ccccc2)cc1S(=O)(=O)N1CCOCC1` yielded a kinetic solubility of 56.7 µg/mL (≈ 146 µM).

Take `Cc1cc(C)c(S(=O)(=O)N2CCN(C(=O)N(C)C)CC2)c(C)c1`: the solubility (kinetic) was above 50.9 µg/mL.

Molecule `Cc1onc(-c2ccccc2)c1NC(=O)N(Cc1ccccc1)C(C)C` returned a solubility (kinetic) of 22.7 µg/mL (≈ 65 µM).

As for `CC(=O)Nc1ccc(/C=C/C(=O)c2ccc3c(c2)OCCO3)cc1`, the kinetic solubility was found to be 5.2 µg/mL (≈ 16.1 µM).

Molecule `CCn1c(=O)c2ccccc2n(CC(=O)NC2CCCCC2)c1=O` registered a kinetic solubility of 15.4 µg/mL (≈ 46.8 µM).

In the case of `Cn1c(-c2ccccn2)[n+](C)c2ccccc21.[Cl-]`, the solubility (kinetic) is above 39 µg/mL.

The molecule `CCOC(=O)c1c(C)[nH]c(C(=O)OCC(=O)NCc2ccccc2)c1C` registered a solubility (kinetic) of 4.5 µg/mL (≈ 12.6 µM).

As to `Cc1cccc(NC(=O)c2ccc3c(c2)OCCO3)n1`, the kinetic solubility came to 32.8 µg/mL (≈ 121 µM). Against the preceding molecule, the solubility kinetic is about 7.3-fold higher.

For `COc1ccc(CCC(=O)N2CCN(c3cccc(C)c3C)CC2)cc1`, the solubility (kinetic) is 17.3 µg/mL (≈ 49.1 µM). Against the preceding molecule, the solubility kinetic is about 1.9-fold lower.

With `NC1=NC(=O)/C(=C/c2ccc(OCC(=O)O)cc2)S1`, the kinetic solubility was above 41.7 µg/mL.

Turning to `Cc1nc2c(oc3ccc(Cl)cc32)c(=O)[nH]1`, the solubility (kinetic) came to 11.9 µg/mL (≈ 50.7 µM).

Regarding `Cc1ccc(C(=O)O/N=C(\N)Cc2cccs2)cc1[N+](=O)[O-]`, the solubility (kinetic) turned out to be 39.9 µg/mL (≈ 125 µM).

`COc1ccc(CCC(=O)NCc2ccccc2OC)cc1`: the solubility (kinetic) was above 44.9 µg/mL.

The molecule `CC1CC1C(=O)OCC(=O)Nc1cccc(F)c1` (configuration not stated) returned a kinetic solubility above 37.7 µg/mL.

`Cl.O=C(OCCN1CCOCC1)c1ccccc1`: the solubility (kinetic) is 39.6 µg/mL.

For the molecule `CCCn1cccc(C(=O)Nc2ccc(OC)cc2)c1=O`, the kinetic solubility was above 42.9 µg/mL.

`O=C(NC(=S)Nc1cccc2ncccc12)c1cccs1` yielded a solubility (kinetic) of 1.7 µg/mL (≈ 5.42 µM).

In turn, `COc1cc(/C=C2\SC(=O)NC2=O)ccc1OCC(=O)N1CCOCC1` came in with a solubility (kinetic) above 56.8 µg/mL.

`COc1ccc(CCNC(=O)Nc2ccc(F)cc2F)cc1OC` came in with a solubility (kinetic) of 1.6 µg/mL (≈ 4.76 µM).

With `CC(C)N(Cc1ccccc1)C(=O)COC(=O)c1cnc(Cl)c(Cl)c1`, the kinetic solubility worked out at 33.9 µg/mL (≈ 88.9 µM).

As for `Cc1ccc(NC(=O)C2CCCN2C(=O)NC2CCCCC2)cc1F` (configuration not stated), the kinetic solubility amounted to 0.9 µg/mL (≈ 2.59 µM).

The molecule `CC1CCc2c(sc(NC(=O)c3cccs3)c2C(=O)O)C1` (configuration not stated) registered a kinetic solubility of 47.4 µg/mL (≈ 147 µM). This solubility kinetic is about 53-fold higher than that of the molecule before.

`COc1cc(S(=O)(=O)N2CCCN(C)CC2)ccc1NC(C)=O` registered a solubility (kinetic) above 51.2 µg/mL.

For `Cc1cc(NCc2cccnc2)nc(N)n1`, the kinetic solubility was above 32.3 µg/mL.

`CCc1cc(=O)[nH]c(SCC(=O)N2CCOCC2)n1` yielded a solubility (kinetic) above 42.5 µg/mL.

Molecule `COC(=O)c1cn(C(=O)c2ccc(OC)c(OC)c2)c2ccccc12` yielded a kinetic solubility of 1.2 µg/mL (≈ 3.54 µM).

Molecule `O=C(Nc1ccccc1)N1CCCC1c1cccs1` (configuration not stated) displayed a solubility (kinetic) of 39.9 µg/mL (≈ 146 µM). This solubility kinetic is about 33-fold higher than that of the molecule before.

As for `Cc1ccc(S(=O)(=O)NCCC(=O)Oc2ccc3ccc(=O)oc3c2)cc1`, the solubility (kinetic) was determined as 25.5 µg/mL (≈ 65.8 µM).

`O=c1c2ccccc2nc(-c2ccccc2F)n1-c1ccccc1` had a solubility (kinetic) of 45.5 µg/mL (≈ 144 µM).

The molecule `O=C(CN1C(=O)c2cccc3cccc(c23)C1=O)N1CCOCC1` displayed a solubility (kinetic) above 48.7 µg/mL.

Molecule `CSc1nc(NCCCO)c2c3c(sc2n1)CN(C)CC3` showed a solubility (kinetic) of 41.7 µg/mL (≈ 129 µM).

`COc1cccc(NC(=O)N2CCCC2C(=O)NC2CCCC2)c1` (configuration not stated) returned a kinetic solubility of 45.9 µg/mL (≈ 138 µM).

Turning to `O=c1c2[nH]c3cccc(Cl)c3c2ncn1CC1CCCO1` (configuration not stated), the kinetic solubility was determined as 7.4 µg/mL (≈ 24.4 µM).

As to `CC(C)(C)C(=O)/C(C#N)=C/c1cccs1`, the solubility (kinetic) turned out to be 10.9 µg/mL (≈ 49.7 µM).

`O=C(Nc1cccc(-c2cn3c(n2)SCC3)c1)c1ccc2c(c1)OCO2` returned a solubility (kinetic) of 18.1 µg/mL (≈ 49.5 µM). This solubility kinetic lies about 1.7-fold higher than the previous one.

In turn, `c1ccc(CN2CCOCCOCCOCC2)cc1` registered a solubility (kinetic) above 39.8 µg/mL.

Consider `CC(C)(C)c1ccc(/C=C(\C#N)C(=O)NCCN2CCOCC2)cc1`, for which the kinetic solubility came out at 30.9 µg/mL (≈ 90.5 µM).

For the molecule `O=S(=O)(c1ccc(F)cc1)N1CCN(c2ncccn2)CC1`, the kinetic solubility came to 8.3 µg/mL (≈ 25.7 µM).

`O=C(O)[C@H](Cc1c[nH]c2ccccc12)Nc1ncccc1[N+](=O)[O-]` registered a solubility (kinetic) above 48.9 µg/mL.

With `CCN(CC)CCOc1ccc(/C(=C(/Cl)c2ccccc2)c2ccccc2)cc1`, the kinetic solubility was determined as 1.5 µg/mL (≈ 3.69 µM).

In the case of `O=[N+]([O-])c1cccc(-c2noc(-c3cccs3)n2)c1`, the kinetic solubility was below 0.2 µg/mL.

Take `CC(=O)c1ccc(NC(=O)[C@@]2(CC(=O)O)CC(/C=C/c3ccccc3)=NO2)cc1`: the kinetic solubility was above 58.9 µg/mL.

`O=C(CSc1nccc(=O)[nH]1)NC1CCCCCCC1` showed a kinetic solubility above 44.3 µg/mL.

Molecule `Cc1ccc(NC(=O)c2cc(C)nc3ccccc23)c(C)c1` showed a kinetic solubility of 27.1 µg/mL (≈ 93.3 µM).

What is called kinetic solubility is solubility judged after dilution from a stock solution rather than from solid.
